As a reminder, the IC50 is the concentration needed to halve the response being measured.

What all share (assay type): biochemical
One test addresses T1, Aurora2 (Homo sapiens, UniProt O14965).
T1 construct: Aurora2: whole recombinant protein comprising an N-terminal histidine tail; His tag (N); made in house; host or cells: E. coli
T1 sequence (O14965 1-403): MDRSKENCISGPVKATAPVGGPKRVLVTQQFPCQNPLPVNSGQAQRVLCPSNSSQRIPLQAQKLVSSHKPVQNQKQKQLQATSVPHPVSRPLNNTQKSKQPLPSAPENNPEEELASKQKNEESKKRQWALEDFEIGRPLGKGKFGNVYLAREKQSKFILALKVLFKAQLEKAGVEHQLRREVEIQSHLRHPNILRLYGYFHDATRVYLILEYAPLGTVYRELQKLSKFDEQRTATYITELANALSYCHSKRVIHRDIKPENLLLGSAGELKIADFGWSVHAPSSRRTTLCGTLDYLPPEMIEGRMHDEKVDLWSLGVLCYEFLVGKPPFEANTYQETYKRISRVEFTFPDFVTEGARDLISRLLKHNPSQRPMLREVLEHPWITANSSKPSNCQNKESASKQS
The test can be described thus: Aurora2 enzymatic test, NuMA phosphorylation with [33P]ATP, Flashplate. The note with it: whole recombinant protein, 1 μM ATP. As to the method:
(§1) The inhibitory effect of compounds with respect to the kinases Aurora1 and Aurora2 is determined by means of an enzymatic test using radioactivity detection.
(§2) The kinase activity of Aurora1 and Aurora2 is evaluated via the phosphorylation of the substrate Numa-histidine in the presence of radiolabelled ATP ([^33P]ATP) using 96-well Flashplate plates in which the nickel chelate is bound to the surface of the microplate. The amount of ^33P phosphate incorporated into the NuMA substrate is proportional to the activity of the enzyme Aurora1 or Aurora2.
Aurora2: whole recombinant protein comprising an N-terminal histidine tail, was expressed in E. coli and purified to more than 82%.
(§3) NuMA (nuclear protein that combines with the mitotic apparatus): 424-amino acid fragment, expressed in E. coli, the N-terminal end of which has been labeled with histidine, and used as substrate for the two Aurora enzymes.
(§4) The microplates used are 96-well Flash-Plate plates, nickel chelate (Perkin-Elmer, model SMP107).
(§5) The products to be evaluated are incubated in a reaction volume of 100 μL per well, in the presence of 10 nM of Aurora1 or Aurora2, 500 nM of NuMA substrate in a buffer composed of 50 mM Tris/HCl (pH 7.5), 50 mM NaCl, 5 mM MgCl2 (Aurora-B) or 10 mM MgCl2 (Aurora-A) and 1 mM DTT, at 37° C.
(§6) 80 μL of enzyme/substrate incubation buffer are distributed in each well, followed by 10 μL of product to be evaluated, at variable concentrations. The reaction is initiated by adding 1 μM final of ATP containing 0.2 μCi of [^33P]ATP (10 μL). After incubating for 30 minutes, the reaction is quenched by simple removal of the reaction buffer and each well is washed twice with 300 μl of Tris/HCl buffer. The radioactivity is then measured in each well using a Packard, Top-Count model scintillation machine.
(§7) The control enzymatic activity of Aurora is expressed by the number of counts per minute obtained over 30 minutes after subtracting the background noise (reaction mixture containing no enzyme). The evaluation of the various test products is expressed as a percentage of inhibition of the Aurora activity relative to the control.

A further test addresses T2, Aurora1 (Homo sapiens, UniProt Q96GD4).
T2 construct: His tag (N); made in house
The test can be described thus: Aurora1 enzymatic test, NuMA phosphorylation with [33P]ATP, Flashplate. As to conditions: Aurora-B/INCENP-C3 recombinant complex, 1 μM ATP. On the procedure:
as §1, §2
Aurora1: Aurora-B/INCENP-C3 recombinant complex, purified to about 50%, the N-terminal end of Aurora-B of which has been labeled with histidine.
as §3, §4, §5, §6, §7

For a further test, the target named is T3, Tie2 (Homo sapiens, UniProt Q02763).
T3 construct: amino acids of the intracellular domain 776-1124; made in house; host or cells: baculovirus expression (pFastBacGT vector)
T3 sequence (Q02763 776-1124): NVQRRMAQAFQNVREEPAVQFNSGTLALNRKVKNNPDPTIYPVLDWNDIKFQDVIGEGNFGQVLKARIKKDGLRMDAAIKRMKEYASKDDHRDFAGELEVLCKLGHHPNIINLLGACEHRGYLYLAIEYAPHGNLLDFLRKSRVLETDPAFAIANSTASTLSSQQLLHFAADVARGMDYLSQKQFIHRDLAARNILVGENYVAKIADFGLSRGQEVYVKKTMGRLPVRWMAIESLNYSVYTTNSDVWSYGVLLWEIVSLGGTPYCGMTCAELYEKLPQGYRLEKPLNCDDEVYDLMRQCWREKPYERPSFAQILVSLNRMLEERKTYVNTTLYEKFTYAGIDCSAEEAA
The test can be described thus: Tie2 kinase test, phosphorylation of PLC with GST-Tie2. As to conditions: GST-Tie2 intracellular domain 776-1124. As to the method:
The coding sequence of human Tie2 corresponding to the amino acids of the intracellular domain 776-1124 was generated by PCR using the cDNA isolated from a human placenta as a model. This sequence was introduced into a pFastBacGT baculovirus expression vector in the form of a GST fusion protein.
The inhibitory effect of the molecules is determined in a test of phosphorylation of PLC with Tie2 in the presence of GST-Tie2 purified to about 80% homogeneity. The substrate is composed of the SH2-SH3 fragments of PLC expressed in the form of a GST fusion protein.
The kinase activity of Tie2 is measured in a MOPS 20 mM pH 7.2 buffer, containing 10 mM MgCl2, 10 mM MnCl2, 1 mM DTT, 10 mM of glycerophosphate. In a 96-well FlashPlate plate maintained on ice, a reaction mixture is deposited, composed of 70 μL of kinase buffer containing 100 ng of enzyme GST-Tie2 per well. Next, 10 μL of the test molecule diluted in DMSO to a maximum concentration of 10% are added. For a given concentration, each measurement is performed four times. The reaction is initiated by adding 20 μL of solution containing 2 μg of GST-PLC, 2 μm of cold ATP and 1 μCi of ^33P[ATP]. After incubation for one hour at 37° C., the reaction is stopped by adding 1 volume (100 μl) of 200 mM EDTA. After removal of the incubation buffer, the wells are washed three times with 300 μL of PBS. The radioactivity is measured on a MicroBeta1450 Wallac.
The inhibition of the Tie2 activity is calculated and expressed as a percentage of inhibition relative to the control activity determined in the absence of compound.

A further test deals with T4, CDK2/cycline E (Homo sapiens, UniProt P24941).
T4 construct: made in house; host or cells: Sf21 insect cells (baculovirus coinfection)
The test can be described thus: CDK2/cyclineE Flashplate test in 96-well format. As to conditions: CDK2/cycline E complex, 1 μM ATP. On the procedure:
Two recombinant baculoviruses bearing the human sequences coding, respectively, for CDK2 and cyclineE (the latter bearing a C-terminal hexahistidine tag) are used to coinfect Sf21 insect cells. Two to three days after the start of coinfection, the cells are harvested by centrifugation and then stored at −40° C. until the time of use.
A format in streptavidin-coated 96-well plates is used to test the activity of the compounds on the kinase activity of CDK2/cycline E.
To perform this test, the biotinylated peptide substrate, a fragment of the protein pRb (biotinyl-[…]-OH), is dissolved at a concentration of 1 mM in kinase buffer (HEPES/NaOH 50 mM, NaCl 1 mM, MgCl2 5 mM, pH 7.5) in order to constitute a stock solution stored at −20° C. in the form of 110 μL aliquots. On the day of the experiment, an aliquot of this solution is thawed and diluted in kinase buffer containing 1 mM of dithiothreitol, added to the buffer extemporaneously, in order to obtain a concentration of 14.3 μM. 70 μL of this solution are added to each well of the Flashplate in order to obtain a final substrate concentration of 10 μM during the enzymatic reaction performed in a final volume of the reaction medium of 100 μL (cf. below).
Intermediate dilutions of inhibitors (products of the invention) at various concentrations are prepared in DMSO from stock solutions at 10 mM in separate tubes. Dilutions at 1000 μM, 333.3 μM, 111.1 μM, 37.03 μM, 12.35 μM, 4.11 μM and 1.37 μM are thus prepared. One μL of each of these solutions (or 1 μL of DMSO for the controls) is transferred into the wells of the test plate.
19 μl of a solution of a mixture of adenosine triphosphate (ATP) and of ATPγ^33P in kinase buffer at a total concentration of 5.26 μM of ATP and 52.6 μCi/ml of ^33P are then added to each well. The enzymatic reaction is initiated by adding 10 μL per well of a 200 nM solution of CDK2/cycline E in kinase buffer containing 1 mM of dithiothreitol (or 10 μL of kinase buffer containing 1 mM of dithiothreitol for the reaction blanks).
After addition of each of the reagents, the final volume of each well is 100 μL, the final concentration of substrate is 10 μM, the final inhibitor concentrations are 10 μM, 3.33 μM, 1.11 μM, 0.37 μM, 0.123 μM, 0.041 μM and 0.014 μM (according to the concentration of the intermediate dilution), the final ATP concentration is 1 μM, the final amount of ^33P is 1 μCi/well, and the final concentration of CDK2/cycline E complex is 20 nM.
After addition of all of the reagents, the test plate is incubated at 30° C. with orbital shaking at 650 rpm.
When the incubation is complete, the plate is washed three times with 300 μL per well of PBS (phosphate-buffered saline, pH=7.4, without calcium or magnesium, reference 10010-015, Gibco BRL). The incorporation of ^33P to the peptide is quantified by scintillation counting with a Packard Topcount.NXT machine.

SMILES strings stand for the structures.

T2 sequence (Q96GD4 whole entry, species assumed): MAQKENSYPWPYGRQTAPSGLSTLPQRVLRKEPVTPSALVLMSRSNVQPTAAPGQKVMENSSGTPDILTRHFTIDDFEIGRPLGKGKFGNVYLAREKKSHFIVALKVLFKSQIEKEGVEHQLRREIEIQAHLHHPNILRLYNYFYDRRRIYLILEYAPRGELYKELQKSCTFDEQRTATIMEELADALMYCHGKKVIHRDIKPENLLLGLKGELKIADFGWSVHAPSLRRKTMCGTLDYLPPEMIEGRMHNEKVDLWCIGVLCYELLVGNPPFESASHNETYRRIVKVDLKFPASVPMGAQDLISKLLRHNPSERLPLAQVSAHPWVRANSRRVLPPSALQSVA
T2 sequence (Q9NQS7 835-903 partner limits assumed, species assumed): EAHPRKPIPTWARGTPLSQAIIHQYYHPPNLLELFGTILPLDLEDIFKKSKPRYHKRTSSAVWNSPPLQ

As for `CCN(NC(=O)c1cc2c(NC(=O)c3ccc(N4CCN(C)CC4)cc3)n[nH]c2s1)c1cccc(C)c1` [Example 40, N-[5-(N′-ethyl-N′-m-tolylhydrazinocarbonyl)-1H-thieno[2,3-c]pyrazol-3-yl]-4-(4-methylpiperazin-1-yl)benzamide], the half-inhibitory concentration (IC50) on Aurora2 amounted to 17 nM; at Aurora1, 11 nM; against Tie2 it was 25 nM; against CDK2/cycline E, 105 nM.
With `CN1CCN(c2ccc(C(=O)Nc3n[nH]c4sc(C(=O)NN(C)c5ccccc5)cc34)cc2)CC1` [Example 35, N-[5-(N′-methyl-N′-phenylhydrazinocarbonyl)-1H-thieno[2,3-c]pyrazol-3-yl]-4-(4-methylpiperazin-1-yl)benzamide], the half-maximal inhibitory concentration (IC50) at Aurora2 stood at 4 nM; at Aurora1, 4 nM; against Tie2 it was 29 nM; at CDK2/cycline E, 121 nM.
Consider `CN1CCN(c2ccc(C(=O)Nc3n[nH]c4sc(C(=O)NN(CC5CCC5)c5ccc(Cl)cc5)cc34)cc2)CC1` [Example 36, N-{5-[N′-(4-chlorophenyl)-N′-cyclobutylmethylhydrazinocarbonyl]-1H-thieno[2,3-c]pyrazol-3-yl}-4-(4-methylpiperazin-1-yl)-benzamide], for which the IC50 was 5 nM at Aurora2, 9 nM on Aurora1, 6 nM against Tie2 and 1920 nM against CDK2/cycline E.
For `COc1ccc(C(=O)Nc2n[nH]c3sc(C(=O)NN(Cc4ccccc4)c4ccccc4)cc23)cc1` [Example 4, N-[5-(N′-benzyl-N′-phenylhydrazinocarbonyl)-1H-thieno[2,3-c]pyrazol-3-yl]-4-methoxybenzamide], in that order: 28 nM, 6 nM, 115 nM and 508 nM.
As to `CC1CN(Cc2ccc(C(=O)Nc3n[nH]c4sc(C(=O)NN(C)c5ccc(Cl)cc5)cc34)cc2)CC(C)N1` (stereo not drawn) [Example 11b, 4-(3,5-dimethylpiperazin-1-ylmethyl)-N-[5-(N′-(4-chlorophenyl)-N′-methylhydrazinocarbonyl)-1H-thieno[2,3-c]pyrazol-3-yl]-benzamide], the 50% inhibitory concentration (IC50) on Aurora2 was 73 nM; on Aurora1, 216 nM; on Tie2 it was 704 nM; against CDK2/cycline E it was 77 nM.
As for `CN1CCN(Cc2cccc(C(=O)Nc3n[nH]c4sc(C(=O)NN(C)c5ccc(Cl)cc5)cc34)c2)CC1` [Example 16b, N-[5-(N′-(4-chlorophenyl)-N′-methylhydrazinocarbonyl)-1H-thieno[2,3-c]pyrazol-3-yl]-3-(4-methylpiperazin-1-ylmethyl)benzamide], the IC50 on Aurora2 was found to be 606 nM; on Aurora1, 936 nM; at Tie2, 2010 nM; against CDK2/cycline E, 301 nM.
As for `CC1CN(Cc2ccc(C(=O)Nc3n[nH]c4sc(C(=O)NN(C)c5ccccc5)cc34)cc2)CCN1` (stereo not drawn) [Example 14a, N-[5-(N′-methyl-N′-phenylhydrazinocarbonyl)-1H-thieno[2,3-c]pyrazol-3-yl]-4-(3-methylpiperazin-1-ylmethyl)benzamide], the IC50 at Aurora2 was 19 nM; at Aurora1 it was 158 nM; against Tie2, 737 nM; on CDK2/cycline E, 166 nM.
As to `CCN(CC)CCNCc1ccc(C(=O)Nc2n[nH]c3sc(C(=O)NN(C)c4ccc(Cl)cc4)cc23)cc1` [Example 23b, N-{5-[N′-(4-chlorophenyl)-N′-methylhydrazinocarbonyl]-1H-thieno[2,3-c]pyrazol-3-yl}-4-[(2-diethylaminoethylamino)methyl]benzamide], the IC50 was found to be 101 nM at Aurora2, 259 nM at Aurora1, 543 nM against Tie2 and 138 nM against CDK2/cycline E.
Turning to `CN(NC(=O)c1cc2c(NC(=O)c3ccc(CN4CCCOCC4)cc3)n[nH]c2s1)c1ccccc1` [Example 21a, N-[5-(N′-methyl-N′-phenylhydrazinocarbonyl)-1H-thieno[2,3-c]pyrazol-3-yl]-4-perhydro-1,4-oxazepin-4-ylmethylbenzamide], the IC50 stood at 14 nM at Aurora2, 55 nM on Aurora1, 430 nM against Tie2 and 122 nM against CDK2/cycline E.

Source of the values: patent publication US7595320B2, “Hydrazinocarbonyl-thieno[2,3-C]pyrazoles, process for preparing them, compositions containing them and use thereof” (Aventis Pharma S.A., priority 2005, dated 2009).
